The term IC50 denotes the concentration needed to halve the response being measured. In general, inhibition refers to the drop in the measured response relative to a control, in per cent. A high value points to strong suppression.

Activity calls are given as the source filed them. The calls are words filed in the database; no cut-off is given here.

One assay deals with T-cell. Description: Effect on differentiation of C57BL/6 mouse T cells assessed as inhibition of IL4 production. It counts as functional, cell-based. The conditions noted are these: C57BL/6, T-cell.
As for `Cc1cccc(Nc2nc(NCCc3ccc(O)cc3)ncc2C(N)=O)c1`, the IC50 was 14 nM. As for `NC(=O)c1cnc(NCCc2ccc(O)c(Cl)c2)nc1NCc1ccccc1`, the IC50 was 2.3 nM.

For a further assay, the target named is T1, Signal transducer and activator of transcription 6 (Homo sapiens) (UniProt P42226).
T1 sequence (whole entry): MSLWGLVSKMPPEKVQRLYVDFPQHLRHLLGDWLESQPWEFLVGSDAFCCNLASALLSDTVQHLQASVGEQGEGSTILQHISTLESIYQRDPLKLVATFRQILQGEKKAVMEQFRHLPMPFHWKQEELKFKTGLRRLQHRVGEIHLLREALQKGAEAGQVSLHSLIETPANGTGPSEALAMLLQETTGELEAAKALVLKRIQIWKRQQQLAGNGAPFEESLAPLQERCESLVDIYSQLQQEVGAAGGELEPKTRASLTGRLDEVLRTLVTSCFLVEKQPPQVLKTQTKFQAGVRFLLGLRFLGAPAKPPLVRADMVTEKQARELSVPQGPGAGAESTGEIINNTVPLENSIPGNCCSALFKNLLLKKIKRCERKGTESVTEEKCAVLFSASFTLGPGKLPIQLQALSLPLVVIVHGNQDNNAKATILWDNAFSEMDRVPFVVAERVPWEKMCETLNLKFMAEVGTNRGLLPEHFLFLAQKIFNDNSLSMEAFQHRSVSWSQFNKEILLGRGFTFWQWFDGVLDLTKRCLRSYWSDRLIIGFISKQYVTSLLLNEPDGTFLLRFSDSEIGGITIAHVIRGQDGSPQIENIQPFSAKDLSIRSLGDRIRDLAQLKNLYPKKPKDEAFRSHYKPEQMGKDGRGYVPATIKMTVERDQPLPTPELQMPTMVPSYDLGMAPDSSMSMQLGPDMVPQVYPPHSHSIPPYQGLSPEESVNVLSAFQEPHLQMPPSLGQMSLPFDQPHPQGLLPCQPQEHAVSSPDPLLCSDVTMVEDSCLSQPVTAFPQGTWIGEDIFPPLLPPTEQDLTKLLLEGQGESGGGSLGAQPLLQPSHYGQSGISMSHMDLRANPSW
The assay can be described thus: Inhibition of STAT6 in human IL4-stimulated FW4 cells at 10 uM.
Conditions: not given
Compound `Cc1cccc(Nc2nc(NCCc3ccccc3O)ncc2C(N)=O)c1` had an inhibition of 15%. Still for that read-out and setting: the result for `Cc1cccc(Nc2nc(NCCc3ccccc3)ncc2C(N)=O)c1` reads 16%; that for `Cc1cccc(Nc2nc(CCCc3ccc(O)cc3)ncc2C(N)=O)c1`, 32%; that for `COc1ccc(CCNc2ncc(C(N)=O)c(Nc3cccc(C)c3)n2)cc1`, 49%. The compound `Cc1cccc(Nc2nc(NCc3ccc(O)cc3)ncc2C(N)=O)c1` had an inhibition of 19%. Same read-out and setting: then `Cc1cccc(Nc2nc(NCCCc3ccc(O)cc3)ncc2C(N)=O)c1`, with 23%.

The test system of the next assay is T-cell. Description: Effect on differentiation of C57BL/6 mouse T cells assessed as inhibition of IL12-induced TFN-gamma production. It counts as functional, cell-based.
Conditions: not given
On to `Cc1cccc(Nc2nc(NCCc3ccc(O)cc3)ncc2C(N)=O)c1`, for which the result was inactive. `NC(=O)c1cnc(NCCc2ccc(O)c(Cl)c2)nc1NCc1ccccc1`: the outcome was inactive.

For a further assay, the target named is T2, Signal transducer and activator of transcription 6 (Homo sapiens, UniProt P42226).
T2 sequence (P42226 whole entry): T1 sequence (whole entry)
The assay can be described thus: Inhibition of STAT6 in human IL4-stimulated FW4 cells.
Conditions: not given
Regarding `CNC(=O)c1cnc(NCCc2ccc(O)c(Cl)c2)nc1NCc1ccccc1`, the IC50 worked out at 30 nM. For `NC(=O)c1cnc(NCCc2ccc(O)cc2)nc1Nc1ccccc1`, the IC50 is 410 nM. In turn, `Cc1cccc(Nc2nc(NCCc3ccc(O)cc3)ncc2C(N)=O)c1` came in with a concentration for half-maximal inhibition (IC50) of 190 nM.

Compound `NC(=O)c1cnc(NCCc2ccc(O)cc2)nc1NC1CCCCC1` came in with a half-maximal inhibitory concentration (IC50) of 100 nM. On the same count and under the same terms, then `Cc1cccc(Nc2nc(NCCc3ccc(O)cc3)ncc2C(=O)NC(C)C)c1`, with 1100 nM; and `NC(=O)c1cnc(NCCc2ccc(O)c(Cl)c2)nc1NCc1ccccc1`, with 21 nM. On to `CNC(=O)c1cnc(NCCc2ccc(O)cc2)nc1Nc1cccc(C)c1`, for which the concentration for half-maximal inhibition (IC50) is 170 nM. Still for that read-out and setting: the result for `COc1cc(CCNc2ncc(C(N)=O)c(Nc3cccc(C)c3)n2)ccc1O` reads 660 nM; that for `NC(=O)c1cnc(NCCc2ccc(O)cc2)nc1NCc1ccccc1`, 88 nM. The compound `Cc1cccc(Nc2nc(NCCc3ccc(O)c(C)c3)ncc2C(N)=O)c1` showed an IC50 of 130 nM. Same read-out and setting: the result for `Cc1cccc(Nc2nc(NCCc3ccc(O)c(Br)c3)ncc2C(N)=O)c1` reads 83 nM.

Take `Cc1cccc(Nc2nc(NCCc3ccc(O)cc3)ncc2C(=O)N(C)C)c1`: the IC50 is 8200 nM. Still for that read-out and setting: then `Cc1cccc(Nc2nc(NCCc3cccc(O)c3)ncc2C(N)=O)c1`, with 3000 nM; and `Cc1cccc(Nc2nc(NCCc3ccc(O)c(Cl)c3)ncc2C(N)=O)c1`, with 45 nM; and `Cc1cccc(Nc2nc(NCCc3ccc(O)c(F)c3)ncc2C(N)=O)c1`, with 64 nM. On the same count and under the same terms, then `CCNC(=O)c1cnc(NCCc2ccc(O)cc2)nc1Nc1cccc(C)c1`, with 380 nM.

Values taken from ChEMBL document CHEMBL1144533, “Synthesis and evaluation of 2-{[2-(4-hydroxyphenyl)-ethyl]amino}pyrimidine-5-carboxamide derivatives as novel STAT6 inhibitors” (Bioorg Med Chem, 2007).
